Measured values: ChEMBL document CHEMBL1681722, “5-oxo-15-HETE: total synthesis and bioactivity” (Bioorg Med Chem Lett, 2011)
Active and inactive are the calls of the source. The calls are words filed in the database; no cut-off is given here.

Legend:
[1] = molecular target: T1, Oxoeicosanoid receptor 1 (Homo sapiens, UniProt Q8TDS5); experiment: Agonist activity at 5-oxo-ETE receptor in human neutrophils assessed as stimulation of ca2+ mobilization; type: functional
[2] = molecular target: T1, Oxoeicosanoid receptor 1; experiment: Agonist activity at 5-oxo-ETE receptor in human neutrophils assessed as stimulation of ca2+ mobilization at 100 nM in presence of 5-oxo-ETE; type: functional
[3] = Stability of the compound at -80 degC after 3 years by reversed-phase HPLC; type: physicochemical; settings: 26298 h

T1 sequence (Q8TDS5 whole entry): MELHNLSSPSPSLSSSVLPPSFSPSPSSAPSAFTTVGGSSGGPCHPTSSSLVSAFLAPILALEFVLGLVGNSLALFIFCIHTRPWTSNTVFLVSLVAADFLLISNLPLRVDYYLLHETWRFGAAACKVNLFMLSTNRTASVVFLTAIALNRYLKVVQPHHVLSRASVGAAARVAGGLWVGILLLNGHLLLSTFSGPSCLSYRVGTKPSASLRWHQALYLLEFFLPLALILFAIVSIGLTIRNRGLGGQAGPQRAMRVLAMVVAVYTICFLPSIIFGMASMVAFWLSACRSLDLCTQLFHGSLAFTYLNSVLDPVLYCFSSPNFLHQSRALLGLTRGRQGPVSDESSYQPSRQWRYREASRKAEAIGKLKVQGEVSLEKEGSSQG

Row | SMILES | EC50 [1] | Activity [2] | Stability [3]
1 | CCCCC/C=C\C/C=C\C/C=C\C=C\C(=O)CCCC(=O)O [5-OXO-ETE] | 7 nM | – | –
2 | CCCCC[C@H](O)/C=C/C=C\C/C=C\C=C\C(=O)CCCC(=O)O | 56 nM | inactive | Stable
